From US20180021277A1, “ANTI-VIRULENCE COMPOSITIONS AND METHODS” (priority 2012, published 2018)
Numbering of substitutions follows the chain as printed. Where “and” joins values, the source holds several entries; their conditions need not be identical. Identical values can stand only once.

How the values were obtained:
MRSA USA300 [1] = assay: Murine MRSA bacteremia/sepsis model
[2] = molecular target: T1, C-terminal DNA-binding domain (AgrA_C) of the Staphylococcus aureus response regulator AgrA (Staphylococcus aureus, UniProt P0A0I7); assay: Microscale thermophoresis binding to AgrA_C; conditions: listed as F19, read-out: Kd / affinity to AgrA_C
T1 sequence (P0A0I7 143-238): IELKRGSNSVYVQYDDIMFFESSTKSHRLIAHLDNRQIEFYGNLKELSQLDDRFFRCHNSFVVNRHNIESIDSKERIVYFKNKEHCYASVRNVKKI
Experimental: The AgrA C proteins from S. aureus and S. epidermidis were fluorescently labeled with Alexa Fluor 647 NHS ester and purified on Zeba spin columns. Compound F19 was diluted as a gradient through the capillaries while protein concentrations were maintained constant. Measurements were performed on a Nanotemper Monolith NT.115 apparatus. Lysozyme and known inhibitor N,N′,N″-triacetylchitotriose (Fisher Scientific) were used as controls.

MRSE Q-15 [3] = assay: Host cell damage assay (LDH leakage), MRSE; type: cell-based, Staphylococcus epidermidis; conditions: for % Damage (LDH Leakage): THP-1 human monocytes; for Damage (%): Table 2, control = 100
Experimental: (§1) Damage to host cells was measured by leakage of lactate dehydrogenase (LDH) with the CytoTox 96 Non-Radioactive Cytotoxicity LDH Assay Promega Kits G178 and G1782 according to manufacturer's instructions.
(§2) […] The bacteria were cultured at 37° C., in a shaking incubator for 6 h at which time 20 μL of bacterial culture was added to 5×10^4 THP-1 monocytes or J774.2 macrophages in 100 μL of cell media (DMEM for J774.2 cells and RPMI for THP-1 cells) in 96 well plates. Bacteria and macrophage/monocytes were incubated together for 40 min at 37° C. Plates were then spun at 250 g for 4 min and 50 μL of the supernatant was removed to a new 96 well plate. 50 μL of substrate mix+assay buffer were added and incubated at room temperature for 10-30 min depending upon the rate of product formation and stopped by addition of 50 μL stop solution. The colorometric products were read at 490 nm on a Victor 3 plate reader. The data presented are from experiments performed in triplicate.
(§3) Gram-positive pathogens compromise host cell defense factors by puncturing membranes of immune system cells. To examine F19 efficacy in preventing host cell damage by various pathogens cell lysis assays were carried out by measuring leakage of lactate dehydrogenase (LDH) from cells. F19 indeed inhibits pathogen-mediated lysis of human THP-1 monocytes and mouse macrophage cell line J7774.2 by a series of Gram-positive pathogens, including MRSA, MRSE, Streptococcus pyogenes, Streptococcus pneumoniae and Bacillus cereus in a dose dependent manner (Table 2 for MRSA, Table 4 for other pathogens).

[4] = molecular target: T2, AgrA_C I238A, V235A, V232A and double mutants (Staphylococcus aureus, UniProt P0A0I7, I238A); assay: Microscale thermophoresis binding to AgrA_C alanine mutants; conditions: data not shown
T2 construct: made in house
T2 sequence (P0A0I7 143-238 I238A): T1 sequence (P0A0I7 143-238) with I96A

[5] = molecular target: T3, AgrA_C I238A, V235A, V232A and double mutants (Staphylococcus aureus, UniProt P0A0I7, I238A/V235A); assay: as above
T3 construct: made in house
T3 sequence (P0A0I7 143-238 V235A/I238A): T1 sequence (P0A0I7 143-238) with V93A, I96A

[6] = molecular target: T4, AgrA_C I238A, V235A, V232A and double mutants (Staphylococcus aureus, UniProt P0A0I7, V232A); assay: as above
T4 construct: made in house
T4 sequence (P0A0I7 143-238 V232A): T1 sequence (P0A0I7 143-238) with V90A

[7] = molecular target: T5, AgrA_C I238A, V235A, V232A and double mutants (Staphylococcus aureus, UniProt P0A0I7, V235A); assay: as above; conditions: data not shown
T5 construct: made in house
T5 sequence (P0A0I7 143-238 V235A): T1 sequence (P0A0I7 143-238) with V93A

MRSE Q-15 [8] = assay: RT-qPCR of virulence gene transcription in MRSE; conditions: 50 μg/mL F19
MRSA USA300 [9] = assay: Biofilm measurement (crystal violet), MRSA; type: cell-based, Staphylococcus aureus; conditions: control = 100
Experimental: Bacterial cells were grown in Luria Broth overnight and an OD600 of 0.5 corresponding to 10^6 cfu/mL. 200 μL of this bacterial culture was plated with the presence of compound at various concentrations. Biofilm was allowed to form by placing the plate at 37° C. in the incubator without shaking. The plate was then washed 2× with water while being careful not to disturb the biofilm. Water was aspirated out and the plate was baked dry in a 60° C. incubator for 2 h. 125 μL of a 0.06% crystal violet solution ([…] in H2O) was added to each well and allowed to sit at room temperature for 15 minutes. […] The plate was inverted on a paper towel to dry overnight.125 μL of 30% acetic acid was added to each well and was left at room temperature for 15 minutes. The wells were mixed by pipetting and the solution was transferred to a clean 96-well plate and read at OD595.

[10] = system: MRSA knockout strain (Lac Δagr); type: cell-based, Staphylococcus aureus; conditions: data not shown
[11] = system: Strepococcus pyogenes AC7; assay: Host cell damage assay (LDH leakage), Streptococcus pyogenes; type: cell-based; conditions: THP-1 human monocytes
Experimental: as §1, §2, §3

[12] = system: Strepococcus pneumonia NR13395; assay: Host cell damage assay (LDH leakage), Streptococcus pneumoniae; type: cell-based; conditions: THP-1 human monocytes
Experimental: as §1, §2, §3

## CCCCCCc1cc(C(=O)COc2ccc(C(C)C)cc2)c(O)cc1O [4f-19]
MRSA USA300 [1]; 30 mg/kg IP twice daily, day 6
  mean bacterial load in blood compared to vehicle-treated animals: nearly an order of magnitude lower
MRSA USA300 [1]; F19 alone 30 mg/kg IP twice daily for 7 days
  survival: 100%
[2]
  Kd: 2.9 µM and 4.5 µM
MRSE Q-15 [3]; F19 1 μg/mL
  % Damage (LDH Leakage): 85.5 ± 2.6%
MRSE Q-15 [3]; F19 5 μg/mL
  % Damage (LDH Leakage): 62.6 ± 1.1%
MRSE Q-15 [3]; F19 10 μg/mL
  % Damage (LDH Leakage): 48.1 ± 1.1%
MRSE Q-15 [3]; F19 20 μg/mL
  % Damage (LDH Leakage): 26.5 ± 0.5%
MRSE Q-15 [3]; F19 30 μg/mL
  % Damage (LDH Leakage): 22.1 ± 0.6%
MRSE Q-15 [3]; F19 40 μg/mL
  % Damage (LDH Leakage): 19.6 ± 1.1%
MRSE Q-15 [3]; F19 1 μg/ml
  Damage (%): 85.5 ± 2.6%
MRSE Q-15 [3]; F19 10 μg/ml
  Damage (%): 48.1 ± 1.1%
MRSE Q-15 [3]; F19 50 μg/ml
  Damage (%): 15.7 ± 0.5%
[4]
  reduction of affinity by I238A mutant: 14 fold
[5]
  binding to the I238A/V235A double mutant: very weak binding at the background level of the instrument
[6]
  affinity to V232A mutant: no loss of affinity
[7]
  reduction of affinity by V235A mutant: 5 fold
MRSE Q-15 [8]
  inhibition of AtlE transcription: 1910 fold
  inhibition of psm-α transcription: 5043 fold
MRSA USA300 [9]; F19 1 μg/ml
  Biofilm (%): 78.8 ± 11.8%
MRSA USA300 [9]; F19 10 μg/ml
  Biofilm (%): 53.7 ± 7.9%
MRSA USA300 [9]; F19 50 μg/ml
  Biofilm (%): 20.6 ± 3.7%
[10]
  synergy with antibiotics in Lac Δagr: synergy is lost
[11]; F19 5 μg/mL
  % Damage (LDH Leakage): 97.4 ± 0.7%
[11]; F19 10 μg/mL
  % Damage (LDH Leakage): 88.4 ± 1.9%
[11]; F19 20 μg/mL
  % Damage (LDH Leakage): 73.6 ± 0.5%
[11]; F19 30 μg/mL
  % Damage (LDH Leakage): 56.2 ± 3.4%
[11]; F19 40 μg/mL
  % Damage (LDH Leakage): 38.7 ± 1.8%
[12]; F19 1 μg/mL
  % Damage (LDH Leakage): 89.3 ± 1.0%
[12]; F19 5 μg/mL
  % Damage (LDH Leakage): 68.3 ± 1.1%
[12]; F19 10 μg/mL
  % Damage (LDH Leakage): 45.5 ± 1.7%
[12]; F19 20 μg/mL
  % Damage (LDH Leakage): 37.1 ± 0.6%
[12]; F19 50 μg/mL
  % Damage (LDH Leakage): 37.7 ± 0.7%
